The target of this assay is T1, Plk2 PBD (Homo sapiens, UniProt Q9NYY3).
T1 construct: (326-603 aa), Plk2 (355-685 aa), and Plk3 (335-646 aa); GST (N); made in house; host or cells: E. coli Rosetta BL21(DE3)
T1 sequence (Q9NYY3 355-685): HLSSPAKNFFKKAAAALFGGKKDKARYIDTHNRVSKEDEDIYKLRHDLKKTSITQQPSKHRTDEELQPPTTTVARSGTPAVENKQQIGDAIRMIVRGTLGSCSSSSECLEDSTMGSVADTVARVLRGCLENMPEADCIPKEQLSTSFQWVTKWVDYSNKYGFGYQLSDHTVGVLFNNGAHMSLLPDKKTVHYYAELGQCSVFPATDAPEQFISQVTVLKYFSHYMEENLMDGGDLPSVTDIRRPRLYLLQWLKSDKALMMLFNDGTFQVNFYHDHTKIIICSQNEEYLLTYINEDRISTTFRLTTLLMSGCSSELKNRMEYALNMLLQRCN
The experiment in a line: Fluorescence polarization assay, Plk2 PBD / FITC-labeled phosphopeptide. It is filed as binding. How it is done: FP assay was performed as follow. Briefly, 30 μL Plk1 PBD proteins (400 nM) were incubated with 0.3 μL tested compounds (1 mg/mL) with shaking for 1 hr at room temperature (RT) prior to addition of 30 μL FITC-Poloboxtide (FITC-GPMQSpTPLNG-OH; λex/λem: 485/535 nm; 60 nM) in FP buffer (50 mM Tris-HCl, 10 mM NaCl, 1 mM EDTA pH8.0). Three wells containing 30 μL FITC-Poloboxtide (60 nM) and 30 μL Plk1 PBD (400 nM) were used as negative control (0% inhibition); three wells containing 60 μL FITC-Poloboxtide (30 nM) only were used as positive control (100% inhibition). Fluorescence polarization was analyzed after incubation of FITC-Poloboxtide for 15 min in a 384-well black opaque microplate (Cat# 6007270, PerkinElmer) using Envision Multilabel Reader (PerkinElmer) at 25°C. We calculated the percentage of inhibition for each sample as follows: Inhibition(%)=Negative−Sample/Negative−Positive×100%
We plotted the inhibition values and determined IC50 using GraphPad Prism5.0. Together with the FITC-labeled peptides used for Plk1 PBD as mentioned above, the following peptides were used for specificity assays, FITC-GPMQTSpTPKNG-OH (Plk2 PBD), FITC-GPLATSpTPKNG-OH (Plk3 PBD). As described above for the FP assay, proteins were used at the following final concentrations: Plk1 PBD, 200 nM; Plk2 PBD, 450 nM; Plk3 PBD, 600 nM. All FITC-labeled peptides were chemically synthesized (China Peptides Co., Ltd., Shanghai) and further verified by mass spectrometry, and the purity is more than 95.0%.
A general note: Fluorescence polarisation rises when a labelled molecule tumbles more slowly, as on binding a larger partner.

Data on 1 compound can be found in PMC5352051, “Identification of a novel Polo-like kinase 1 inhibitor that specifically blocks the functions of Polo-Box domain” (Oncotarget, 2016).

Where only a bound is given, the exact number is not on record here.

Regarding `CCS(=O)(=O)c1oc(-c2ccc(F)cc2)nc1S(=O)(=O)c1ccccc1` [T521, 5-(ethylsulfonyl)-2-(4-fluorophenyl)-4-(phenylsulfonyl) oxazole], for the setting “FP assay, 1 hr preincubation at RT, read-out: Apparent IC50”, the IC50 is > 500 µM. Moreover, the “inhibition of binding of PBD to FITC-labeled phosphopeptide” value (concentration as high as 500 μM) is “little inhibition”.

In general, IC50 refers to the concentration that inhibits the measured activity by half.
